Measured values reported in article PMC7699745, “The Search for New Anticonvulsants in a Group of (2,5-Dioxopyrrolidin-1-yl)(phenyl)Acetamides with Hybrid Structure—Synthesis and In Vivo/In Vitro Studies” (International Journal of Molecular Sciences, 2020).

Test system: tactile allodynia in OXPT-treated mice
Test: Oxaliplatin (OXPT)-induced peripheral neuropathy, von Frey test
Type: in vivo
Protocol: In order to investigate the analgesic activity of the most promising compound 30 in a neuropathic pain model, we tested it in oxaliplatin (OXPT)-induced peripheral neuropathy, in which mechanical and cold allodynia result from impaired function of ion channels, among others. The early phase of neuropathic pain appears hours after OXPT administration, while the late phase develops days after OXPT. Thus, we tested compound 30 3 h and 7 days after the injection of OXPT. We investigated the influence of compound 30 on tactile allodynia using the von Frey method. Three hours after the administration of OXPT we observed a significant decrease in the mean value of force that caused paw withdrawal reaction (1.89 ± 0.04 g) (64.2% of the baseline) compared to nontreated animals (2.94 ± 0.06 g) (the baseline). Seven days after OXPT administration, the pain threshold was 2.00 ± 0.03 (68.0% of the baseline). […] In the late phase, the values of pain threshold were as follows 2.18 ± 0.06 g, 2.60 ± 0.08 g, and 2.91 ± 0.05 g, which correspond to 74.1%, 88.4%, and 98.9% of the baseline value.
The experimental groups consisted of 6–12 adult male Albino Swiss mice (CD-1, 18–25 g). Each animal was tested only once. Immediately after the assay, the animals were sacrificed by cervical dislocation. Behavioral measurements were observed by trained observers. The in vivo antinociceptive assays were in accordance with Polish regulations and European Union Directive of 22 September 2010 (2010/63/EU). All procedures were carried out according to the rules of the International Council on Laboratory Animal Science (ICLAS) and were approved by the Local Ethical Committee in Cracow, Poland (approval No 104/2015, 111/2016, and 179/2017). The tested substances were suspended in 1% aqueous solution of Tween-80 and were injected i.p. 30 min prior to the test. Control group animals (negative control) were administered with an appropriate amount of vehicle (Tween-80, 1% aqueous solution, i.p.) 30 min prior to the test.
The experimental in vivo procedures were previously reported for the formalin test; compounds 4 and 30 were tested in three doses—40, 80, 120 mg/kg (4), and 20, 40, 80 mg/kg (30). Before formalin application, different groups of animals were injected i.p. with vehicle (10 mL/kg, negative control). The in vivo procedure for the model of capsaicin-induced nociception was previously reported; the animals were pretreated with vehicle (10 mL/kg, negative control) and the dose–response of investigated compounds was evaluated at 40, 80, 120 mg/kg (4), and 20, 40, 80 mg/kg (30). The in vivo procedure for the model of OXPT-induced peripheral neuropathy was previously reported; the mice with developed tactile allodynia were pretreated i.p. with test compound 30 (20, 40, and 80 mg/kg) and vehicle.
Data are presented as means ± standard error of the mean (SEM). The GraphPad Prism Software (v.5) was used to analyze the vast majority of data. Statistically significant differences between groups were calculated using one-way analysis of variance (ANOVA) and the post hoc Dunnett’s multiple comparison test or two-way analysis of variance (ANOVA). The criterion for significance was set at p < 0.05.

[1] = early phase (3 h after OXPT), 20 mg/kg i.p.
[2] = early phase (3 h after OXPT), 40 mg/kg i.p.
[3] = early phase (3 h after OXPT), 80 mg/kg i.p.
[4] = late phase (7 days after OXPT), 20 mg/kg i.p.
[5] = late phase (7 days after OXPT), 40 mg/kg i.p.
[6] = late phase (7 days after OXPT), 80 mg/kg i.p.

SMILES: O=C(NCCc1cccc(OC(F)(F)F)c1)C(c1ccccc1)N1C(=O)CCC1=O (stereo not drawn) [Compound 30, 2-(2,5-Dioxopyrrolidin-1-yl)-2-phenyl-N-(3-(trifluoromethoxy)phenethyl)acetamide]
- pain sensitivity threshold (von Frey, force causing paw withdrawal) [1]: 2.26 ± 0.08 g
- pain threshold, % of the baseline value [1]: 76.8%
- pain sensitivity threshold (von Frey, force causing paw withdrawal) [2]: 2.49 ± 0.05 g
- pain threshold, % of the baseline value [2]: 84.7%
- pain sensitivity threshold (von Frey, force causing paw withdrawal) [3]: 2.97 ± 0.05 g
- pain threshold, % of the baseline value [3]: 101.0%
- pain threshold (von Frey) [4]: 2.18 ± 0.06 g
- pain threshold, % of the baseline value [4]: 74.1%
- pain threshold (von Frey) [5]: 2.60 ± 0.08 g
- pain threshold, % of the baseline value [5]: 88.4%
- pain threshold (von Frey) [6]: 2.91 ± 0.05 g
- pain threshold, % of the baseline value [6]: 98.9%
